In ChEMBL document CHEMBL4819010, “Design, synthesis, and biological studies of novel 3-benzamidobenzoic acid derivatives as farnesoid X receptor partial agonist” (Eur J Med Chem, 2021):
pEC50: −log10 of the molar value. Each block holds one molecule with its values, some of them ahead of it. Activity calls are given as the source filed them. No cut-off for these calls is given here.

Columns and labels:
Bile acid receptor = molecular target: T1, Bile acid receptor (Homo sapiens, UniProt Q96RI1); experiment: Agonist activity at FXR-LBD (unknown origin) assessed by ligand binding ability incubated for 3 hrs in absence of light measured by TR-FRET Coactivator assay
T1 sequence (Q96RI1 whole entry): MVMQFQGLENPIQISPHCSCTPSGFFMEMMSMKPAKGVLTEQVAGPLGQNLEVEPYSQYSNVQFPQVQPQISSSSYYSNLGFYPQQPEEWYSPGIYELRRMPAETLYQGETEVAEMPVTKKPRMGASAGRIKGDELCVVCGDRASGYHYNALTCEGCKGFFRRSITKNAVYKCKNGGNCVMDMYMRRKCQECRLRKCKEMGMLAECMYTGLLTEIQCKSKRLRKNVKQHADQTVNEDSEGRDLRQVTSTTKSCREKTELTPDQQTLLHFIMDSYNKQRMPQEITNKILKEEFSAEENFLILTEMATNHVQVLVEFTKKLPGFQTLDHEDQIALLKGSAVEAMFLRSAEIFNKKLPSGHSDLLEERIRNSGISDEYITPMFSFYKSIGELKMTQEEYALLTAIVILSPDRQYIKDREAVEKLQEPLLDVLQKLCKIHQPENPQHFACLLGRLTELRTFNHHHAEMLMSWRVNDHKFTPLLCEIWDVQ

[1] = Agonist activity at FXR (unknown origin)/human RXR heterodimer expressing in human HepG2 cells co-expressing pCMV gal assessed luciferase activity measured after 24 hrs by cell based luciferase transactivation assay; conditions: HepG2, 24 h
HepG2 = experiment: Agonist activity at FXR (unknown origin)/human RXR heterodimer expressing in human HepG2 cells co-expressing pCMV gal assessed luciferase activity measured after 24 hrs by cell based luciferase transactivation assay relative to […]; conditions: dose 3.0 µM
Mus musculus [2] = experiment: Hepatoprotective activity in APAP-induced C57BL/6 mouse liver injury model assessed as decrease in hepatic necrosis at 30 mg/kg, bid oral gavage for 5 days measured after 12 hrs of APAP injection; assay type: functional, organism-based; conditions: time 5.0 day
Mus musculus [3] = experiment: Hepatoprotective activity in APAP-induced C57BL/6 mouse liver injury model assessed as decrease in hepatic degeneration at 30 mg/kg, bid oral gavage for 5 days measured after 12 hrs of APAP injection; assay type: functional, organism-based; conditions: time 5.0 day
Mus musculus [4] = experiment: Hepatoprotective activity in APAP-induced C57BL/6 mouse liver injury model assessed as decrease in hepatic haemorrhage at 30 mg/kg, bid oral gavage for 5 days measured after 12 hrs of APAP injection; assay type: functional, organism-based; conditions: time 5.0 day
Mus musculus [5] = experiment: Hepatoprotective activity in APAP-induced C57BL/6 mouse liver injury model assessed as decrease in […] at 30 mg/kg, bid oral gavage measured after 5 days; assay type: functional, organism-based; conditions: time 5.0 day
Mus musculus [6] = experiment: Hepatoprotective activity in APAP-induced C57BL/6 mouse liver injury model assessed as decrease in serum ALT levels at 30 mg/kg, bid oral gavage measured after 5 days; assay type: functional, organism-based; conditions: time 5.0 day
Mus musculus [7] = experiment: Hepatoprotective activity in APAP-induced C57BL/6 mouse liver injury model assessed as decrease in serum AST levels at 30 mg/kg, bid oral gavage measured after 5 days; assay type: functional, organism-based; conditions: time 5.0 day
Mus musculus [8] = experiment: Hepatoprotective activity in APAP-induced C57BL/6 mouse liver injury model assessed as decrease in serum LDH levels at 30 mg/kg, bid oral gavage measured after 5 days; assay type: functional, organism-based; conditions: time 5.0 day
[9] = molecular target: T2, Bile acid receptor (Mus musculus) (UniProt Q60641); experiment: In vivo agonist activity at FXR in C57BL/6 mouse assessed as inhibition of APAP-induced FXR decline at 30 mg/kg, bid ip measured after 5 days by RT-PCR method; assay type: functional, organism-based; conditions: time 5.0 day
T2 sequence (whole entry): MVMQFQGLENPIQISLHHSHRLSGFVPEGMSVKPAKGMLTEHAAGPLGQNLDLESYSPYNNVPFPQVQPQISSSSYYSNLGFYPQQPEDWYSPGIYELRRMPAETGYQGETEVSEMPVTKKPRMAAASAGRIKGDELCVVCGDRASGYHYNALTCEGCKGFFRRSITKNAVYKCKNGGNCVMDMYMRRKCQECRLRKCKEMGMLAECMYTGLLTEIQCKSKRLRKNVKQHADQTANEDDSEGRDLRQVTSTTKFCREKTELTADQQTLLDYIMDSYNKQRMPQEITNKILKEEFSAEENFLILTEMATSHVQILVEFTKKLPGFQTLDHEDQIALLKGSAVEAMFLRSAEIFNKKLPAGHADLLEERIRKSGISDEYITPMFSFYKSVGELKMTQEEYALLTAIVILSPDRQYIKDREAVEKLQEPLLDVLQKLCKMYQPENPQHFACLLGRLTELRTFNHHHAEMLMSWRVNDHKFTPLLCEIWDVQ

[10] = molecular target: T2, Bile acid receptor (Mus musculus); experiment: In vivo agonist activity at FXR in C57BL/6 mouse assessed as increase of UGT1A1 mRNA expression at 30 mg/kg, bid ip measured after 5 days by RT-PCR method; assay type: functional, organism-based; conditions: time 5.0 day
[11] = molecular target: T2, Bile acid receptor (Mus musculus); experiment: In vivo agonist activity at FXR in C57BL/6 mouse assessed as increase of BSEP mRNA expression at 30 mg/kg, bid ip measured after 5 days by RT-PCR method; assay type: functional, organism-based; conditions: time 5.0 day
[12] = molecular target: T2, Bile acid receptor (Mus musculus); experiment: In vivo agonist activity at FXR in C57BL/6 mouse assessed as upregulation of OST beta mRNA expression at 30 mg/kg, bid ip measured after 5 days by RT-PCR method; assay type: functional, organism-based; conditions: time 5.0 day
[13] = molecular target: T2, Bile acid receptor (Mus musculus); experiment: In vivo agonist activity at FXR in C57BL/6 mouse assessed as upregulation of SHP mRNA expression at 30 mg/kg, bid ip measured after 5 days by RT-PCR method; assay type: functional, organism-based; conditions: time 5.0 day
[14] = molecular target: T2, Bile acid receptor (Mus musculus); experiment: In vivo agonist activity at FXR in C57BL/6 mouse assessed as upregulation of IBABP mRNA expression at 30 mg/kg, bid ip measured after 5 days by RT-PCR method; assay type: functional, organism-based; conditions: time 5.0 day
[15] = molecular target: T2, Bile acid receptor (Mus musculus); experiment: In vivo agonist activity at FXR in C57BL/6 mouse assessed as decrease of CYP7A1 mRNA expression at 30 mg/kg, bid ip measured after 5 days by RT-PCR method; assay type: functional, organism-based; conditions: time 5.0 day
Mus musculus [16] = experiment: Hepatoprotective activity in APAP-induced C57BL/6 mouse liver injury model assessed as increase in GSH levels at 30 mg/kg, bid oral gavage measured after 5 days; assay type: functional, organism-based; conditions: time 5.0 day
Mus musculus [17] = experiment: Hepatoprotective activity in APAP-induced C57BL/6 mouse liver injury model assessed as increase in Gclm mRNA expression at 30 mg/kg, bid oral gavage measured after 5 days by qRT-PCR method; assay type: functional, organism-based; conditions: time 5.0 day
Mus musculus [18] = experiment: Hepatoprotective activity in APAP-induced C57BL/6 mouse liver injury model assessed as increase in catalase mRNA expression at 30 mg/kg, bid oral gavage measured after 5 days by qRT-PCR method; assay type: functional, organism-based; conditions: time 5.0 day
Mus musculus [19] = experiment: Hepatoprotective activity in APAP-induced C57BL/6 mouse liver injury model assessed as increase in SOD2 mRNA expression at 30 mg/kg, bid oral gavage measured after 5 days by qRT-PCR method; assay type: functional, organism-based; conditions: time 5.0 day
Mus musculus [20] = experiment: Hepatoprotective activity in APAP-induced C57BL/6 mouse liver injury model assessed as increase in Gpx1 mRNA expression at 30 mg/kg, bid oral gavage measured after 5 days by qRT-PCR method; assay type: functional, organism-based; conditions: time 5.0 day
Mus musculus [21] = experiment: Hepatoprotective activity in APAP-induced C57BL/6 mouse liver injury model assessed as increase in SOD1 mRNA expression at 30 mg/kg, bid oral gavage measured after 5 days by qRT-PCR method; assay type: functional, organism-based; conditions: time 5.0 day

SMILES: O=C(O)c1ccc(NC(=O)c2ccc(Oc3ccccc3)cc2)cc1
pEC50 (Bile acid receptor): < 5.00

SMILES: Cc1ccc(NC(=O)c2cccc(C(=O)O)c2)cc1
pEC50 (Bile acid receptor): < 5.00

SMILES: O=C(Nc1ccccc1C(=O)O)c1ccc(Oc2ccccc2)cc1
pEC50 (Bile acid receptor): < 5.00

SMILES: CC(Oc1cccc(NC(=O)c2ccc(Oc3ccccc3)cc2)c1)C(=O)O (stereo not given)
pEC50 (Bile acid receptor): < 5.00

SMILES: O=C(O)c1cccc(NC(=O)c2csc(-c3ccc(C(F)(F)F)cc3)n2)c1
pEC50 (Bile acid receptor): 5.77

SMILES: COc1ccccc1C(=O)Nc1cccc(C(=O)O)c1
pEC50 (Bile acid receptor): < 5.00

SMILES: CC(C)CCOc1cccc(C(=O)Nc2cccc(C(=O)O)c2)c1
pEC50 (Bile acid receptor): 5.56

SMILES: O=C(O)c1cccc(NC(=O)c2nc(-c3ccccc3)cs2)c1
pEC50 (Bile acid receptor): 5.54

SMILES: CC(C)(Oc1cccc(NC(=O)c2ccc(Oc3ccccc3)cc2)c1)C(=O)O
pEC50 (Bile acid receptor): < 5.00

SMILES: Cc1cccc(COc2cccc(C(=O)Nc3cccc(C(=O)O)c3)c2)c1
pEC50 (Bile acid receptor): 5.73

SMILES: CCOc1cccc(C(=O)Nc2cccc(C(=O)O)c2)c1
pEC50 (Bile acid receptor): 5.63

SMILES: Cc1cc(C(=O)Nc2cccc(C(=O)O)c2)nn1-c1ccccc1
pEC50 (Bile acid receptor): < 5.00

SMILES: CCCOc1cccc(C(=O)Nc2cccc(C(=O)O)c2)c1
pEC50 (Bile acid receptor): 5.67

SMILES: O=C(O)COc1cccc(NC(=O)c2ccc(Oc3ccccc3)cc2)c1
pEC50 (Bile acid receptor): < 5.00

SMILES: O=C(O)c1cccc(NC(=O)c2ccc(-c3ccccc3)cc2)c1
pEC50 (Bile acid receptor): < 5.00

SMILES: COc1ccccc1C(=O)Nc1ccc(C)c(C(=O)O)c1
pEC50 (Bile acid receptor): < 5.00

SMILES: O=C(O)c1cccc(OCc2ccc(Oc3ccccc3)cc2)c1
pEC50 (Bile acid receptor): < 5.00

SMILES: CO/N=C(/COc1ccc(C(=O)Nc2cccc(C(=O)O)c2)cc1)c1ccccc1
pEC50 (Bile acid receptor): < 5.00

SMILES: CCCCCOc1cccc(C(=O)Nc2cccc(C(=O)O)c2)c1
pEC50 (Bile acid receptor): 5.60

These reach a higher pEC50 (Bile acid receptor). Values come first.

pEC50 (Bile acid receptor): 5.90
SMILES: O=C(O)c1cccc(NC(=O)c2cccc(OCC3CC3)c2)c1

pEC50 (Bile acid receptor): 5.99
SMILES: COc1cccc(C(=O)Nc2cccc(C(=O)O)c2)c1

pEC50 (Bile acid receptor): 6.50
SMILES: O=C(O)c1cccc(NC(=O)c2ccc(OCc3cccc(-c4ccccc4)c3)cc2)c1

pEC50 (Bile acid receptor): 5.85
SMILES: Cc1ccc(COc2cccc(C(=O)Nc3cccc(C(=O)O)c3)c2)cc1

pEC50 (Bile acid receptor): 6.59
SMILES: Cc1cccc(COc2ccc(C(=O)Nc3cccc(C(=O)O)c3)cc2)c1

pEC50 (Bile acid receptor): 7.17
pEC50 [1]: 6.41
SMILES: Cc1ccccc1-c1cccc(C(=O)Nc2cccc(C(=O)O)c2)c1
Activity (HepG2): 23.1%

pEC50 (Bile acid receptor): 6.67
SMILES: CC(C)CCOc1ccc(C(=O)Nc2cccc(C(=O)O)c2)cc1

pEC50 (Bile acid receptor): 6.90
SMILES: Cc1ccc(NC(=O)c2ccc(Oc3ccccc3)cc2)cc1C(=O)O

pEC50 (Bile acid receptor): 5.99
SMILES: Cc1ccccc1-c1cccc(COc2ccc(C(=O)Nc3cccc(C(=O)O)c3)cc2)c1

pEC50 (Bile acid receptor): 5.93
SMILES: O=C(O)c1cccc(NC(=O)c2cccc(OCc3ccccc3)c2)c1

pEC50 (Bile acid receptor): 6.59
SMILES: CCCCOc1cccc(-c2cccc(C(=O)Nc3cccc(C(=O)O)c3)c2)c1

pEC50 (Bile acid receptor): 7.60
pEC50 [1]: 6.71
Activity [9]: Active
Activity [10]: Active
Activity [12]: Active
Activity [13]: Active
Activity [14]: Active
Activity [15]: Active
SMILES: O=C(O)c1cccc(NC(=O)c2cccc(-c3ccccc3)c2)c1
Activity (HepG2): 28.6%
Activity (Mus musculus [2]): Active
Activity (Mus musculus [3]): Active
Activity (Mus musculus [4]): Active
Activity (Mus musculus [5]): Active
Activity (Mus musculus [6]): Active
Activity (Mus musculus [7]): Active
Activity (Mus musculus [8]): Active
Activity [11]: Active
Activity (Mus musculus [16]): Active
Activity (Mus musculus [17]): Active
Activity (Mus musculus [18]): Active
Activity (Mus musculus [19]): Active
Activity (Mus musculus [20]): Active
Activity (Mus musculus [21]): Active

pEC50 (Bile acid receptor): 6.98
SMILES: CCCCOc1ccc(C(=O)Nc2cccc(C(=O)O)c2)cc1

pEC50 (Bile acid receptor): 6.50
SMILES: Cc1nc(-c2ccc(C(F)(F)F)cc2)sc1C(=O)Nc1cccc(C(=O)O)c1

pEC50 (Bile acid receptor): 6.22
SMILES: COc1ccc(C(=O)Nc2cccc(C(=O)O)c2)cc1

pEC50 (Bile acid receptor): 6.87
SMILES: O=C(O)c1cccc(NC(=O)c2ccc(OCc3ccccc3)cc2)c1

pEC50 (Bile acid receptor): 7.01
pEC50 [1]: 6.33
SMILES: O=C(O)c1cccc(NC(=O)c2ccc(Oc3ccccc3)cc2)c1
Activity (HepG2): 21.2%
Activity (Mus musculus [2]): Active
Activity (Mus musculus [3]): Active
Activity (Mus musculus [4]): Active
Activity (Mus musculus [6]): Active
Activity (Mus musculus [7]): Active
Activity (Mus musculus [8]): Active

pEC50 (Bile acid receptor): 6.58
SMILES: O=C(O)c1ccc(OCc2ccc(OCc3c(-c4c(Cl)cccc4Cl)noc3C3CC3)cc2)cc1
Activity (Mus musculus [2]): Active
Activity (Mus musculus [3]): Active
Activity (Mus musculus [4]): Active
Activity (Mus musculus [6]): Active
Activity (Mus musculus [7]): Active
Activity (Mus musculus [8]): Active
